Values of other authors, collected in patent US8608968B2, “Compositions for bioremediation and methods for using” (Carus Corporation, priority 2006, dated 2013).

conditions: dimensionless

Row | SMILES | Henry's Law Constant
1 | C=C [Ethene] | 8.76
2 | C [Methane] | 27.2
3 | ClC=C(Cl)Cl [Trichloroethene] | 0.48
4 | C=CCl [Vinyl chloride] | 0.95
5 | Cl/C=C\Cl [cis-1,2-dichloroethene] | 0.31
